Measurements as given in ChEMBL document CHEMBL4483862, “Open-source discovery of chemical leads for next-generation chemoprotective antimalarials” (2018).

Tested on: Plasmodium berghei
Experiment: Luciferase/luciferin-expressing antifolate-resistant parasites were used to infect a culture of HepG2 cells that were pre-incubated with compounds. Infected hepatocytes emit light due to the luciferase reaction. Assay results are presented as the percent inhibition of light emission compared to control. […]
Assay type: functional
Conditions: sporozoite; for IC90: read-out: LUCIFERASE INFECTION ASSAY - IC90
[1] = read-out: LUCIFERASE INFECTION ASSAY - IC50

| Structure (SMILES) | IC90 | also measured |
| --- | --- | --- |
| Cc1nc2ccccc2n1CCC(=O)Nc1cccc(Cl)c1 | 8.51 µM | IC50 (PBLUC_HILL_SLOPE 4.62, PBLUC_R_SQUARED 0.253, read-out: LUCIFERASE INFECTION ASSAY - IC50): 5.29 µM |
| Fc1ccc(CNc2ncnc3ccc(Cl)cc23)cc1 | 9.51 µM | IC50 (HEPG2TOX_HILL_SLOPE 10.6, HEPG2TOX_R_SQUARED 0.947, PBLUC_HILL_SLOPE 2.4, PBLUC_R_SQUARED 0.787, read-out: LUCIFERASE INFECTION ASSAY - IC50): 3.81 µM |
| COc1ccc(-c2nc3c(c(SCCN4CCCC4)n2)COC(C)(C)C3)cc1 | > 8.26 µM | IC50 (PBLUC_HILL_SLOPE 2.26, PBLUC_R_SQUARED 0.135, read-out: LUCIFERASE INFECTION ASSAY - IC50): 5.35 µM |
| CCCOc1cccc(NC(=O)c2cc(CC(C)C)oc2C)c1 | 10.1 µM | IC50 (PBLUC_HILL_SLOPE 5.71, PBLUC_R_SQUARED 0.294, read-out: LUCIFERASE INFECTION ASSAY - IC50): 6.86 µM |
| Cc1occc1NC(=O)N1[C@@H]2CC[C@@H](C2)[C@H]1c1nc2cccc(OCc3ccc(F)cc3)c2[nH]1 | > 10 µM | IC50 [1]: > 10 µM |
| Cc1ccc(-c2nc(C(=O)N3CCCc4ccccc43)cs2)cc1 | > 10 µM | IC50 [1]: 2.91 µM |
| Nc1nc(Nc2cc(Cl)cc(Cl)c2)c2[nH]cnc2n1 | 8.62 µM | IC50 (PBLUC_HILL_SLOPE 2.21, PBLUC_R_SQUARED 0.753, read-out: LUCIFERASE INFECTION ASSAY - IC50): 3.18 µM |
| O=C(CSc1ncnc2sc(-c3ccccc3)cc12)NCc1ccc(F)cc1 | > 10 µM | IC50 (HEPG2TOX_HILL_SLOPE 9.03, HEPG2TOX_R_SQUARED 0.325, PBLUC_HILL_SLOPE 19.9, PBLUC_R_SQUARED 0.0271, read-out: LUCIFERASE INFECTION ASSAY - IC50): 9.7 µM |
| O=C1CC(c2cccc3ccccc23)c2c([nH]c(-c3ccccc3)nc2=O)N1 (stereo not drawn) | > 8.98 µM | IC50 [1]: > 8.98 µM |
| CC(C)c1cccc(-c2nc3ccnc(NCc4ccc(N(C)C)cc4)c3[nH]2)c1 | > 10 µM | IC50 (HEPG2TOX_HILL_SLOPE 6.72, HEPG2TOX_R_SQUARED 0.795, PBLUC_HILL_SLOPE 11.9, PBLUC_R_SQUARED 0.428, read-out: LUCIFERASE INFECTION ASSAY - IC50): 8.78 µM |
| O=C(NC1CC1)c1ccc(-c2cnc3c(NCc4ccco4)nccn23)cc1 | 3.44 µM | IC50 (HEPG2TOX_HILL_SLOPE 10.4, HEPG2TOX_R_SQUARED 0.433, PBLUC_HILL_SLOPE 17.4, PBLUC_R_SQUARED 0.253, read-out: LUCIFERASE INFECTION ASSAY - IC50): 3.03 µM |
| O=C(c1[nH]c2ccccc2c1-c1ccccc1)N1CCOCC1 | 8.74 µM | IC50 (HEPG2TOX_HILL_SLOPE 1.63, HEPG2TOX_R_SQUARED 0.942, PBLUC_HILL_SLOPE 2.32, PBLUC_R_SQUARED 0.78, read-out: LUCIFERASE INFECTION ASSAY - IC50): 3.39 µM |
| O=C(Nc1ccc2nc(Cc3ccccc3)nn2c1)NC1CCCCC1 | 3.6 µM | IC50 (HEPG2TOX_HILL_SLOPE 5.83, HEPG2TOX_R_SQUARED 0.978, PBLUC_HILL_SLOPE 13.4, PBLUC_R_SQUARED 0.389, read-out: LUCIFERASE INFECTION ASSAY - IC50): 3.05 µM |
| CCCNC(=O)c1c(NC(=O)c2cc(F)cc(F)c2)nc2ccccn12 | 2.45 µM | IC50 (FFLUC_HILL_SLOPE 41.4, FFLUC_R_SQUARED 0.343, HEPG2TOX_HILL_SLOPE 1.12, HEPG2TOX_R_SQUARED 0.682, PBLUC_HILL_SLOPE 5.41, PBLUC_R_SQUARED 0.415, read-out: LUCIFERASE INFECTION ASSAY - IC50): 1.63 µM |
| Cc1cc(C(=O)NN2Cc3ccccc3C2=N)c(C)n1-c1ccccc1 | > 10 µM | IC50 (HEPG2TOX_HILL_SLOPE 1.03, HEPG2TOX_R_SQUARED 0.677, read-out: LUCIFERASE INFECTION ASSAY - IC50): > 10 µM |
| Cc1ccc(/N=c2\scc(-c3cccc(C(F)(F)F)c3)n2/N=C/c2ccc3ncccc3c2)c(C)c1 | > 10 µM | IC50 (FFLUC_HILL_SLOPE 2.84, FFLUC_R_SQUARED 0.529, read-out: LUCIFERASE INFECTION ASSAY - IC50): > 10 µM |
| COc1cccc(CC(=O)Nc2nc3ccc(C)cn3c2C(=O)NC2CCCC2)c1 | > 8.12 µM | IC50 [1]: > 8.12 µM |
| Cc1cccc(C)c1NC(=O)Nc1nc(C(N)Cc2ccc(C(F)(F)F)cc2)cs1 (stereo not drawn) | > 7.6 µM | IC50 (PBLUC_HILL_SLOPE 11.8, PBLUC_R_SQUARED 0.0609, read-out: LUCIFERASE INFECTION ASSAY - IC50): 6.88 µM |
| CCOCCCNC(=O)/C(C#N)=C/c1ccc([N+](=O)[O-])o1 | > 10 µM | IC50 (PBLUC_HILL_SLOPE 1.42, PBLUC_R_SQUARED 0.135, read-out: LUCIFERASE INFECTION ASSAY - IC50): > 10 µM |
| CCC(C)NC(=O)c1c(NC(=O)c2ccc(F)cc2)nc2ccc(C)cn12 (stereo not drawn) | 3.49 µM | IC50 (HEPG2TOX_HILL_SLOPE 5.39, HEPG2TOX_R_SQUARED 0.713, PBLUC_HILL_SLOPE 10.6, PBLUC_R_SQUARED 0.548, read-out: LUCIFERASE INFECTION ASSAY - IC50): 2.84 µM |
| COC(=O)c1scc(S(=O)(=O)Cc2ccco2)c1NN=C(C#N)C#N | > 8.72 µM | IC50 [1]: > 8.72 µM |

| Structure (SMILES) | IC90 | also measured |
| --- | --- | --- |
| O=C(c1cn2ccccc2n1)N1CCN(C(c2ccccc2)c2ccccc2)CC1 | > 10 µM | IC50 (PBLUC_HILL_SLOPE 4.26, PBLUC_R_SQUARED 0.0991, read-out: LUCIFERASE INFECTION ASSAY - IC50): 6.51 µM |
| Cc1cc(NC(=O)CNC(c2ccc(C3CCCCC3)cc2)C(C)C)n(C2CCS(=O)(=O)C2)n1 (stereo not drawn) | 9.9 µM | IC50 (PBLUC_HILL_SLOPE 35.5, PBLUC_R_SQUARED 0.454, read-out: LUCIFERASE INFECTION ASSAY - IC50): 9.31 µM |
| O=C(Nc1cccc(Cn2ccnc2)c1)c1nn(-c2ccccc2)c2c1CCC2 | > 10 µM | IC50 [1]: > 10 µM |
| O=C(OCc1cc(=O)n2cc(Br)ccc2n1)C1(c2ccccc2)CC1 | > 10 µM | IC50 [1]: > 10 µM |
| Cc1cnc(C(=O)OCC(=O)N(CC(C)C)C2CCS(=O)(=O)C2)cn1 (stereo not drawn) | > 10 µM | IC50 (HEPG2TOX_HILL_SLOPE 0.131, HEPG2TOX_R_SQUARED 0.272, PBLUC_HILL_SLOPE 1.29, PBLUC_R_SQUARED 0.0136, read-out: LUCIFERASE INFECTION ASSAY - IC50): > 10 µM |
| Cc1cccn2c(C(=O)NC(C)C)c(NC(=O)c3cccc(C(F)(F)F)c3)nc12 | > 8.16 µM | IC50 [1]: > 8.16 µM |
| Cc1ccc(/C=C/c2ccc3ccccc3[n+]2C)cc1 | > 8.52 µM | IC50 (PBLUC_HILL_SLOPE 12.2, PBLUC_R_SQUARED 0.0729, read-out: LUCIFERASE INFECTION ASSAY - IC50): 8.36 µM |
| O=C(NCCO)c1cccc(-c2ccc3ncc(-c4cccnc4)n3n2)c1 | 3.93 µM | IC50 (HEPG2TOX_HILL_SLOPE 1.56, HEPG2TOX_R_SQUARED 0.733, PBLUC_HILL_SLOPE 4.25, PBLUC_R_SQUARED 0.42, read-out: LUCIFERASE INFECTION ASSAY - IC50): 2.34 µM |
| C=CCOc1cccc(C(=O)N(C)Cc2nc(-c3ccc(Cl)cc3)no2)c1 | > 8.6 µM | IC50 [1]: > 8.6 µM |
| CCCCN(C)CC(O)Cn1c2ccc(Cl)cc2c2cc(Cl)ccc21 (stereo not drawn) | 6.48 µM | IC50 (HEPG2TOX_HILL_SLOPE 6.86, HEPG2TOX_R_SQUARED 0.608, PBLUC_HILL_SLOPE 4.67, PBLUC_R_SQUARED 0.619, read-out: LUCIFERASE INFECTION ASSAY - IC50): 4.05 µM |
| Cc1c(C)n(CCCO)c2ncn3nc(-c4ccccc4O)nc3c12 | 0.862 µM | IC50 (FFLUC_HILL_SLOPE 0.508, FFLUC_R_SQUARED 0.752, HEPG2TOX_HILL_SLOPE 10.5, HEPG2TOX_R_SQUARED 0.849, PBLUC_HILL_SLOPE 1, PBLUC_R_SQUARED 0.894, read-out: LUCIFERASE INFECTION ASSAY - IC50): 0.0964 µM |
| OCc1ccc(-c2cn3c(-c4ccccc4)cnc3cn2)cc1 | > 11 µM | IC50 (HEPG2TOX_HILL_SLOPE 0.117, HEPG2TOX_R_SQUARED 0.27, read-out: LUCIFERASE INFECTION ASSAY - IC50): > 11 µM |
| Cc1cccc(C(=O)Nc2nc3ccc(C)cn3c2C(=O)NC2CCCC2)c1 | 7.46 µM | IC50 (PBLUC_HILL_SLOPE 3.54, PBLUC_R_SQUARED 0.461, read-out: LUCIFERASE INFECTION ASSAY - IC50): 4.01 µM |
| Cc1ccc(CC(=O)NCc2ccc(C#N)cc2)cc1 | 8.45 µM | IC50 (PBLUC_HILL_SLOPE 3.17, PBLUC_R_SQUARED 0.517, read-out: LUCIFERASE INFECTION ASSAY - IC50): 4.23 µM |
| O=C(NC(CN1CCCC1)c1ccccc1)c1ccc(N2CCCC2=O)cc1 (stereo not drawn) | > 10 µM | IC50 (HEPG2TOX_HILL_SLOPE 1.34, HEPG2TOX_R_SQUARED 0.227, PBLUC_HILL_SLOPE 0.905, PBLUC_R_SQUARED 0.0409, read-out: LUCIFERASE INFECTION ASSAY - IC50): > 10 µM |
| C[C@]12CC[C@@H]3c4ccc(O)cc4CC[C@H]3[C@@H]1CC[C@@H]2O [ESTRADIOL] | 9.85 µM | IC50 [1]: 5.43 µM |
| O=C(NC1CC1)c1ccc(-c2cnc3cnc(-c4cnn(Cc5ccccc5)c4)cn23)cc1 | > 7.59 µM | IC50 (PBLUC_HILL_SLOPE 12.1, PBLUC_R_SQUARED 0.417, read-out: LUCIFERASE INFECTION ASSAY - IC50): 6.99 µM |
| CNC(=O)c1cccc(Nc2ccn3nc(-c4ccccc4)cc3n2)c1 | 3.76 µM | – |
| COc1ccc(-c2ccc3ncc(-c4ccoc4)n3n2)cc1OC | > 10 µM | IC50 (PBLUC_HILL_SLOPE 16.2, PBLUC_R_SQUARED 0.0483, read-out: LUCIFERASE INFECTION ASSAY - IC50): > 10 µM |
| C1=C(c2ccccc2)CCN(Cc2cccc3cccnc23)C1 | 9.68 µM | IC50 (HEPG2TOX_HILL_SLOPE 3.29, HEPG2TOX_R_SQUARED 0.953, PBLUC_HILL_SLOPE 4.04, PBLUC_R_SQUARED 0.237, read-out: LUCIFERASE INFECTION ASSAY - IC50): 5.62 µM |
| CSc1nnc(-c2csc(S(=O)(=O)Oc3cc(Cl)cc(Cl)c3)c2)n1C | > 7.56 µM | IC50 [1]: > 7.56 µM |
